10 compounds from patent US11780812B2, “Oxopyridine derivatives useful as aminocarboxymuconate semialdehyde decarboxylase (ACMSD) inhibitors” (OrsoBio, Inc., priority 2016, dated 2023) can be followed below.

This test deals with human ACMSD (Homo sapiens (Human), UniProt Q8TDX5). Briefly: Human ACMSD-1 inhibitor assay (coupled 3-HAO/ACMSD, absorbance at 360 nm). To be noted: read-out: hACMSD IC50; human ACMSD 6 μg/ml, 50 mM MES pH 6.0, 28° C., four-parameter dose-response fit.
human ACMSD, sequence (Q8TDX5 whole entry): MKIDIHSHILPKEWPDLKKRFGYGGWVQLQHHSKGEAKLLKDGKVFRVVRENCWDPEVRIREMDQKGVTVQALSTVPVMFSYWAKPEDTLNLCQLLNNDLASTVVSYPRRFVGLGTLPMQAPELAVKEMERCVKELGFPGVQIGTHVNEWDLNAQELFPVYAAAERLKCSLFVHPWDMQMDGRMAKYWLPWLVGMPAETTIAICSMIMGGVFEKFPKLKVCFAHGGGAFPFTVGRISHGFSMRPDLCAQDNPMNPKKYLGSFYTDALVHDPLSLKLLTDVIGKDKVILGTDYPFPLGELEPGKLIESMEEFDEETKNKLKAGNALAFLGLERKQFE
Protocol: A solution of 7.8 μg/ml 3-hydroxyanthranilate 3,4-dioxygenase (3-HAO) with protein dilution buffer (50 mM 4-Morpholineethanesulfonic acid “MES” pH 6.0) and a solution of 6 μg/ml Human 2-amino-3-carboxymuconate-6-semialdehyde decarboxylase (human ACMSD) with protein dilution buffer (50 mM MES pH 6.0) were prepared separately. A serial 2-fold dilution of test compounds, from 512 nM until 0.5 nM were prepared.
The plate was placed into a SpectraMax Plus 384 Microplate Reader, Molecular Devices with the temperature set to 28° C. The absorbance at 360 nm for 10 min with 10 seconds interval was monitored and recorded.
To a 96-well plate was added 50 μl of 6 μg/ml human ACMSD with series concentrations of the test compound. The absorbance was recorded at 360 nm for 10 min with 10 seconds interval. The data was analyzed in GraphPad Prism 6. A four-parameter dose-response curve was fitted. “Hill Slope” was constrained between −0.5 and −3, and such constrains was indicated when applied.
For the compound `N#Cc1c(C(F)(F)F)cc(=O)[nH]c1SCc1cc(C(=O)O)ccc1F` [Ex. 19, 3-((3-cyano-6-oxo-4-(trifluoromethyl)-1,6-dihydropyridin-2-ylthio)methyl)-4-fluorobenzoic acid], the IC50 (commonly the concentration needed to halve the response being measured) came out at 0.23 µM.

Take `N#Cc1c(C(F)(F)F)cc(=O)[nH]c1SCc1cc(C(=O)O)ccc1Cl` [Ex. 3, 4-chloro-3-((3-cyano-6-oxo-4-(trifluoromethyl)-1,6-dihydropyridin-2-ylthio)methyl)benzoic acid]: the IC50 came out at 0.158 µM.

Regarding `Cc1cc(=O)[nH]c(SCC(=O)O)c1C#N` [reference compound], the IC50 came to 2.99 µM.

With `N#Cc1c(CC2CCCCC2)cc(=O)[nH]c1SCc1cccc(C(=O)O)c1` [Ex. 35, 3-(((3-cyano-4-(cyclohexylmethyl)-6-oxo-1,6-dihydropyridin-2-yl)thio)methyl)benzoic acid], the IC50 is 0.2 µM.

In the case of `N#Cc1c(C2CC2)cc(=O)[nH]c1SCC(=O)O` [Ex. 14, 2-((3-cyano-4-cyclopropyl-6-oxo-1,6-dihydropyridin-2-yl)thio)acetic acid], the IC50 was 7.3 µM.

With `Cc1cccc(-c2cc(=O)[nH]c(SCc3cccc(C(=O)O)c3)c2C#N)c1` [Ex. 25, 3-(((3-cyano-6-oxo-4-(m-tolyl)-1,6-dihydropyridin-2-yl)thio)methyl)benzoic acid], the IC50 amounted to 0.006 µM.

With `N#Cc1c(-c2ccccc2)cc(=O)[nH]c1SCc1cccc(C(=O)O)n1` [Ex. 33, 6-(((3-cyano-6-oxo-4-phenyl-1,6-dihydropyridin-2-yl)thio)methyl)picolinic acid], the 50% inhibitory concentration (IC50) is 0.19 µM.

On to `N#Cc1c(-c2ccccc2)cc(=O)[nH]c1SCc1cccc(C(=O)O)c1` [Ex. 15, 3-(((3-cyano-6-oxo-4-phenyl-1,6-dihydropyridin-2-yl)thio)methyl)benzoic acid], for which the IC50 amounted to 0.056 µM.

For the compound `O=c1cc(C(F)(F)F)cc(SCc2nnn[nH]2)[nH]1` [Ex. 52, 6-((1H-tetrazol-5-yl)methylthio)-4-(trifluoromethyl)pyridin-2(1H)-one], the 50% inhibitory concentration (IC50) stood at 0.13 µM.

Regarding `CCCc1cc(=O)[nH]c(SCC(=O)O)c1C#N` [Ex. 6, 2-((3-cyano-6-oxo-4-propyl-1,6-dihydropyridin-2-yl)thio)acetic acid], the IC50 was 3.05 µM.
